Data from patent US5767134A, “Prodrug forms of ribonucleotide reductase inhibitors 3-AP and 3-AMP” (Vion Pharmaceuticals, Inc., priority 1997, dated 1998).
Where a name gives a salt, the structure may show the parent alone.

Legend:
[1] = vs hydroxyurea; cited from earlier work
L1210 leukemia = details: compared with other HCTs reported to date; cited from earlier work
[2] = system: A2780 human ovarian carcinoma; details: compared with other HCTs reported to date; cited from earlier work
M-109 lung carcinoma = details: compared with other HCTs reported to date; cited from earlier work
[3] = Conversion of Prodrug I (para) to 3-AP in vitro in presence of S9 fraction of rat liver (FIG. 9); type: in vitro ADME
Experimental: FIG. 9 depicts a graph of the conversion of Prodrug I (para) to 3-AP in the presence of liver S9 fraction.
A 1 μM solution of Prodrug I in culture media was incubated with approximately 2.5 mg of liver S9 fraction.

[4] = Water solubility in deionized water; type: physicochemical; details: for Dissolution observed in water: 3-AP: 5 mg in 100 mL, room temperature, 2 hours, prodrug I: 8 mg in 0.5 mL, a few minutes
Experimental: In order to test the water solubility of Prodrug I (disodium salt) compared to 3-AP, the following procedure was used. To test the water solubility of 3-AP in deionized water, 5 mg of 3-AP was placed in a 125 mL erlenmeyer flask to which was added 100 mL of water. The mixture was well shaken at room temperature. […] Total water solubility of 3-AP in deionized water was <1 mg/20 mL. In the case of prodrug I (para), 8 mg of the prodrug was placed in a 50 mL erlenmeyer flask.

M109 tumor = M109 tumor growth in Balb/c mice with two vehicle controls (FIG. 11); type: in vivo
Experimental: (§1) FIGS. 10 and 11 depict a graph comparing the reduction in M109 tumor growth in Balb/c Mice treated with a control, 3-AP or Prodrug I (para).
(§2) Balb/c mice were subcutaneously injected in the right flank on Day 0 with 0.2 mL of a 5×10^6 cell/mL suspension of M109 tumor cells which had been grown to log phase in culture, trypsin digested to separate, washed with PBS and reconstituted. Injections of 3-AP, Prodrug I, or Vehicle Control were given to the […] twice on Day 3, once on Day 4, twice on Day 6 and once on Day 7. Ten mice received only injections of 3 AP, each injection providing a dose of 4.5 mg/kg body weight. Ten mice received only injections of Prodrug I, each injection providing a dose of 10 mg/kg body weight. Ten mice received only injections of the vehicle control. […] FIG. 11 also compares the reduction in M109 tumor growth in Balb/c Mice using two vehicle controls (1-phosphate buffered […] and 2- 10% DMSO). […] Control I was used as a control for the prodrug; control 2 was used for the parent drug.
(§3) Balb/c mice were subcutaneously injected in the right flank on Day 0 with 0.2 mL of a 5×10^6 cell/mL suspension of M109 tumor cells which had been grown to log phase in culture, trypsin digested to separate, washed with PBS and reconstituted. […]

M109 tumor cells = assay: In vivo efficacy, M109 tumor growth in Balb/c mice (FIG. 10); details: 10 mg/kg per injection vs equal molar dose of 3-AP (4.5 mg/kg)
Experimental: as §1, §2, §3

[5] = Stability of Prodrug I in culture media alone, HPLC assay; type: in vitro ADME; details: 37° C., two hours

For `Cc1ccnc(C=NNC(N)=S)c1N` [Prodrug 3-AMP, 3-amino-4-methylpyridine-2-carboxaldehyde thiosemicarbazone], the “Antineoplastic activity in comparison with hydroxyurea (HU)” value [1] is given as “significant antineoplastic activity”, the “Therapeutic effects against L1210 leukemia” value (L1210 leukemia) is given as “much better therapeutic effects” and the “Therapeutic effects against A2780 human ovarian carcinoma” value [2] is given as “much better therapeutic effects”. For the same compound, the “Therapeutic effects against M-109 lung carcinoma” value (M-109 lung carcinoma) was “much better therapeutic effects”.
For `NC(=S)NN=Cc1ncccc1N` [Prodrug 3-AP, 3-aminopyridine-2-carboxaldehyde thiosemicarbazone], the “Stability of recovered 3-AP in liver S9 fraction” value ([3]; liver S9 fraction) is listed as “stable”, the “Antineoplastic activity in comparison with hydroxyurea (HU)” value [1] is listed as “significant antineoplastic activity” and the “Therapeutic effects against L1210 leukemia” value (L1210 leukemia) is listed as “much better therapeutic effects”. The “Dissolution observed in water” value [4] was “not totally dissolved”, the “Total water solubility in deionized water” value ([4]; 120 min) was under 1 mg/20 mL and the “Therapeutic effects against A2780 human ovarian carcinoma” value [2] was “much better therapeutic effects”. The “Therapeutic effects against M-109 lung carcinoma” value (M-109 lung carcinoma) was “much better therapeutic effects”.
For `NC(=S)NN=Cc1ncccc1NC(=O)OCc1ccc(OP(=O)(O)O)cc1` [Prodrug I (disodium salt)], the “Dissolution observed in water” value [4] was “readily dissolved”, the “Increase in water solubility over 3-AP” value ([4]; disodium salt vs 3-AP, deionized water) was “more than 300 fold” and the solubility ([4]; disodium salt, deionized water, read-out: Total water solubility in deionized water) was at least 16 mg/mL.
For `NC(=S)NN=Cc1ncccc1NC(=O)OCc1ccc(OP(=O)(O)O)cc1` [Prodrug I (para)], the “Course of prodrug concentration with liver S9 fraction” value ([3]; 1 μM, approximately 2.5 mg liver S9 fraction, 37° C.) was “decreased very rapidly”, the “Prodrug concentration after incubation with liver S9 fraction” value ([3]; 1 μM, approximately 2.5 mg liver S9 fraction, after 100 minutes at 37° C.) was “below detection limits” and the Other metabolites found ([3]; 1 μM, liver S9 fraction, 37° C.) was “no other metabolites were found”. For the same compound, the “Rate of conversion of Prodrug I to 3-AP” value ([3]; liver S9 fraction, 37° C.) was 20 nmole/min/mg rat liver tissue, the metabolised at 1 µM ([3]; rat, 1 μM, liver S9 fraction, 37° C., read-out: Prodrug recovered as 3-AP) was about 80% and the “Anti-tumor activity compared to 3-AP or the two controls” value (M109 tumor; controls PBS and 10% DMSO) was “superior anti-tumor activity”. The “Reduction of M109 tumor growth compared with 3-AP” value (M109 tumor; mole-to-mole basis) was “more effective”, the “Reduction of tumor growth compared with 3-AP” value (M109 tumor cells; tumors measured Days 7, 10, 13, 17) was “significantly more effective” and the “Reduction of tumor growth compared with 3-AP” value (M109 tumor cells; tumors measured Days 7, 10, 13, 17, listed as Prodrug I) was “slightly more effective”. The “Prodrug concentration in culture media alone” value [5] was “relatively stable” and the “3-AP found in culture media alone” value ([5]; HPLC) was “no 3-AP was found”.
